In US20180360790A1, “NUTRITIONAL COMPOSITIONS AND INFANT FORMULAS TO PROMOTE MYELINATION IN THE BRAIN” (NESTEC S.A., priority 2015, published 2018):

Tested on: brain myelination (myelin water fraction)
Test: Cross-sectional correlation of infant formula nutrient composition with brain myelination (mcDESPOT MRI, general linear model)
Assay type: in vivo, infants and young children
Settings: single GLM of quantified formula nutrients and child age vs myelin water fraction; children up to 5 years; 5 most frequently used formulas
Protocol: This technique provides a quantitative measure, the Myelin Water Fraction (MWF), which is a surrogate marker of myelin content. When mapped as a function of time across early childhood, myelination trajectories can be generated. Infant formula composition: six infant formulas fed to infants participating in study were analyzed for their composition/level of myelin-relevant nutrients. […] Infants included in this study were drawn from a larger longitudinal study of normal brain and behavioral development: the Brown university Assessment of Myelination and Behavior Across Maturation (BAMBAM). To focus on neurotypical development, children with known potential risk factors for learning, neurologic, or psychiatric disorders were specifically excluded during recruitment and enrollment. […] Each infant was scanned using the mcDESPOT (multicomponent Driven Equilibrium Single Pulse Observation of T1 and T2) white matter imaging technique Deoni et al. (Magn. Reson. Med. 2008, 60:1372-1387), which provides a quantitative measure of the myelin water fraction (MWF) at each imaging point throughout the brain. […] Mean values for each region were then determined for each child and used for subsequent developmental analysis and trajectory modeling.

Row | Substance | nutritional drivers for myelination indicated by the final model
1 | sphingomyelin | identified drivers
2 | Iron | identified drivers
